Assay results reported in the NIST ThermoML archive (doi:10.1021/je700321s).

Test: xn = mol fraction of the nth substance listed
Conditions: Liquid, Vibrating tube method

CC(C)O [propan-2-ol] + O=C=O
Conditions	mass density [kg/m3]
308.11 K, 1814 kPa, x2 = 0.139	786.2
308.11 K, 2252 kPa, x2 = 0.139	786.8
308.11 K, 3003 kPa, x2 = 0.139	787.7
308.11 K, 3206 kPa, x2 = 0.139	787.9
308.11 K, 3427 kPa, x2 = 0.139	788.2
308.11 K, 3514 kPa, x2 = 0.2003	792.7
308.11 K, 3607 kPa, x2 = 0.139	788.4
308.11 K, 4006 kPa, x2 = 0.2003	793.4
308.11 K, 4089 kPa, x2 = 0.139	788.9
308.11 K, 4510 kPa, x2 = 0.2003	794
308.11 K, 5013 kPa, x2 = 0.139	789.9
308.11 K, 5028 kPa, x2 = 0.2003	794.7
308.11 K, 5503 kPa, x2 = 0.139	790.5
308.11 K, 5504 kPa, x2 = 0.2003	795.3
308.11 K, 6002 kPa, x2 = 0.6086	812.2
308.11 K, 6006 kPa, x2 = 0.2003	795.9
308.11 K, 6019 kPa, x2 = 0.139	791
308.11 K, 6221 kPa, x2 = 0.6086	813
308.11 K, 6400 kPa, x2 = 0.6086	813.7
308.11 K, 6517 kPa, x2 = 0.2003	796.5
308.11 K, 6518 kPa, x2 = 0.139	791.7
308.11 K, 6606 kPa, x2 = 0.6086	814.5
308.11 K, 6807 kPa, x2 = 0.6086	815.2
308.11 K, 6824 kPa, x2 = 0.7943	793.7
308.11 K, 7001 kPa, x2 = 0.7943	795.6
308.11 K, 7009 kPa, x2 = 0.139	792.2
308.11 K, 7019 kPa, x2 = 0.6086	815.9
308.11 K, 7029 kPa, x2 = 0.2003	797.2
308.11 K, 7203 kPa, x2 = 0.6086	816.7
308.11 K, 7206 kPa, x2 = 0.7943	797.4
308.11 K, 7400 kPa, x2 = 0.7943	799.2
308.11 K, 7401 kPa, x2 = 0.6086	817.4
308.11 K, 7512 kPa, x2 = 0.139	792.7
308.11 K, 7516 kPa, x2 = 0.2003	797.7
308.11 K, 7607 kPa, x2 = 0.6086	818.3
308.11 K, 7607 kPa, x2 = 0.7943	801.1
308.11 K, 7804 kPa, x2 = 0.6086	818.9
308.11 K, 7810 kPa, x2 = 0.7943	803
308.11 K, 8001 kPa, x2 = 0.2003	798.3
308.11 K, 8005 kPa, x2 = 0.6086	819.7
308.11 K, 8007 kPa, x2 = 0.7943	804.6
308.11 K, 8016 kPa, x2 = 0.139	793.3
308.11 K, 8197 kPa, x2 = 0.7943	806.2
308.11 K, 8209 kPa, x2 = 0.6086	820.4
308.11 K, 8414 kPa, x2 = 0.7943	807.8
308.11 K, 8511 kPa, x2 = 0.2003	798.9
308.11 K, 8530 kPa, x2 = 0.139	793.9
308.11 K, 8600 kPa, x2 = 0.6086	821.7
308.11 K, 8618 kPa, x2 = 0.7943	809.6
308.11 K, 8796 kPa, x2 = 0.7943	810.8
308.11 K, 8810 kPa, x2 = 0.6086	822.4
308.11 K, 8990 kPa, x2 = 0.139	794.3
308.11 K, 9000 kPa, x2 = 0.6086	823.1
308.11 K, 9017 kPa, x2 = 0.7943	812.5
308.11 K, 9019 kPa, x2 = 0.2003	799.5
308.11 K, 9101 kPa, x2 = 0.6086	823.3
308.11 K, 9200 kPa, x2 = 0.6086	823.8
308.11 K, 9203 kPa, x2 = 0.7943	813.9
308.11 K, 9400 kPa, x2 = 0.7943	815.3
308.11 K, 9498 kPa, x2 = 0.139	794.8
308.11 K, 9607 kPa, x2 = 0.7943	816.6
308.11 K, 9807 kPa, x2 = 0.7943	818
308.11 K, 9902 kPa, x2 = 0.7943	818.6
308.11 K, 10003 kPa, x2 = 0.2003	800.7
308.11 K, 10047 kPa, x2 = 0.2003	800.8
308.12 K, 4780 kPa, x2 = 0.4248	807.5
